{"source": "patent US7897607B2", "about": "“Cyclic compounds” (Takeda Pharmaceutical Company Limited, priority 2005, dated 2011)", "data": [{"target": "T1, human CRF receptor (Homo sapiens, UniProt P34998)", "T1 construct": "expressed in transfected cells; host or cells: CHO cells (membrane fraction)", "T1 sequence (P34998 24-415)": "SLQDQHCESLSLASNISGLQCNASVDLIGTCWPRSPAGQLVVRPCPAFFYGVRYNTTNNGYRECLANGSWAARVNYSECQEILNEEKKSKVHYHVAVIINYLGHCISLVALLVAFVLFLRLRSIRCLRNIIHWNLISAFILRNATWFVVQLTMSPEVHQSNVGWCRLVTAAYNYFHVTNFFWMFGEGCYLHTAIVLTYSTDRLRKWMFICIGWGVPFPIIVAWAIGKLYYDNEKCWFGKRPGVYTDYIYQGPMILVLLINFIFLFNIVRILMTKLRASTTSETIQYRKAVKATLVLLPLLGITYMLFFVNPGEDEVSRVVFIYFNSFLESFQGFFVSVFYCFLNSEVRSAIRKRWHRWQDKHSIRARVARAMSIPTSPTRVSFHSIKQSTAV", "assay": "Measurement of corticotropin-releasing factor (CRF) binding inhibitory rate; receptor binding experiment with 125I-CRF", "conditions": "human CRF receptor expressing CHO cellular membrane fraction, 50 pM 125I-CRF, room temperature 1 hour", "procedure": "Measurement of Corticotropin-Releasing Factor (CRF) Binding Inhibitory Rate\nA receptor binding experiment was carried out using a human CRF receptor expressing CHO cellular membrane fraction and sheep CRF, [^125I]-tyr^0(^125I-CRF). 100 nM of a test compound was incubated with 1 μg of human CRF receptor expressing CHO cellular membrane fraction and 50 pM of ^125I-CRF in a binding assay buffer (50 mM Tris-HCl, 5 mM EDTA, 10 mM MgCl2, 0.05% CHAPS, 0.1% BSA, 0.5 mM PMSF, […] pepstatin, 20 μg/ml leupeptin, pH 7.5). In addition, for measuring nonspecific binding (NSB), 0.1 μM unlabelled human Urocortin was incubated with 1 μg of human CRF receptor expressing CHO cellular membrane fraction and 50 pM of ^125I-CRF in a binding assay buffer. After a binding reaction was carried out at room temperature for 1 hour, the membrane was entrapped on a glass filter (UniFilter plate GF-C/Perkin Elmer) by suction filtration using a cell harvester (Perkin Elmer), and washed with ice-cooled 50 mM Tris-HCl (pH 7.5). After drying the glass filter, a liquid scintillation cocktail (Microscinti 0, Perkin Elmer) was added, and the radioactivity of ^125I-CRF remaining on a glass filter was measured using Topcount (Perkin Elmer).\n(TB-SB)/(TB-NSB)×100 (SB: radioactivity when a compound is added, TB: maximum binding radioactivity, NSB: nonspecific binding radioactivity) was calculated to obtain a binding inhibitory rate under the presence of 1,000 nM or 100 nM of each test substances.", "units": {"inhibition": "%"}, "values": [{"compound": "CCCC(CCC)n1cc(C)c(=O)c2c(-c3ccc(C)cc3C)cccc21", "note": "[Example 24, 5-(2,4-Dimethylphenyl)-3-methyl-1-(1-propylbutyl)quinolin-4(1H)-one]", "inhibition": "> 80"}, {"compound": "CCCN(CCC)c1cc(C)c(=O)n2c(-c3c(C)cc(C)cc3C)cccc12", "note": "[Example 28, 1-(Dipropylamino)-6-mesityl-3-methyl-4H-quinolizin-4-one]", "inhibition": "> 80"}, {"compound": "CCCN(CCC)c1nc2c(c(-c3ccc(C)cc3C)nn2C)c(=O)n1C", "note": "[9 (A), 3-(2,4-Dimethylphenyl)-6-dipropylamino-1,5-dimethyl-1,5-dihydro-4H-pyrazolo[3,4-d]pyrimidin-4-one]", "inhibition": "> 80"}, {"compound": "CCC(CC)n1c2cccc(-c3c(C)cc(C)cc3C)c2c(=O)n1C", "note": "[Example 150, 1-(1-ethylpropyl)-4-mesityl-2-methyl-1,2-dihydro-3H-indazol-3-one]", "inhibition": "> 80"}, {"compound": "CCCN(CCC)c1nc2c(c(-c3c(C)cc(C)cc3C)cn2C)c(=O)n1C", "note": "[Example 41, 2-(Dipropylamino)-5-mesityl-3,7-dimethyl-3,7-dihydro-4H-pyrrolo[2,3-d]pyrimidin-4-one]", "inhibition": "> 80"}, {"compound": "CCC(CC)Oc1nn(C)c(=O)c2c1ccn2-c1ccc(C)cc1C", "note": "[Example 96, 1-(2,4-Dimethylphenyl)-4-(1-ethylpropoxy)-6-methyl-1,6-dihydro-7H-pyrrolo[2,3-d]pyridazin-7-one]", "inhibition": "> 80"}]}]}
